From patent US11078232B2, “Preparation and use of molecular site targeted and activated kinase inhibitor” (Yafei Shanghai Biology Medicine Science & Technology Co. …, priority 2017, dated 2021)

What was measured:
D121 lung cancer cells = assay: D121 lung cancer immunotherapy model; conditions: single agent; for Tumor inhibition rate/% (week 7): i.v. ⅙ MTD once a week for 4 weeks; for CD8: CD45 (%): tumor CD8+ T cells among CD45-positive cells, flow cytometry
Heg2 cells = assay: MTT cytotoxicity on Heg2 cells; type: cell-based; conditions: FIG. 3; for toxicity to Heg2 cells: 48 hours, pH 6.5, MTT; for inhibition of cancer cells versus positive controls: cell viability experiments
Experimental: Collect logarithmic Heg2 cells, adjust the cell suspension concentration, add 140 ul per well, and plate to adjust the density of the cells to be tested ˜5000/well; 5% CO2, incubate at 37° C. overnight, until the cell monolayer is covered with the bottom of the well (96) Condensate bottom plate), adding continuous concentration gradient to give different concentrations of compound S1, compound a and sorafenib, the drug set 9 concentration gradients, 10 ul per well, set 3 duplicate wells; 5% CO2, 37° C. PH6 0.5 incubation for 48 hours, observed under an inverted microscope; 20 μl of MTT solution (5 mg/ml, i.e. 0.5% MTT) was added to each well and incubation was continued for 4 h. The culture was terminated, and the culture solution in the well was carefully aspirated; 100 ul of dimethyl sulfoxide was added to each well, and shaken on a shaker at a low speed for 10 min to dissolve the crystals sufficiently. The absorbance of each well was measured at an enzyme-linked immunosorbent detector at OD490 nm. At the same time, zero adjustment holes (medium, MTT, dimethyl sulfoxide), control group (cell, same concentration of drug dissolution medium, medium, MTT, dimethyl sulfoxide) were set.

aspartic endopeptidase = target: T1, aspartic endopeptidase (Homo sapiens, UniProt Q99538); assay: Activation efficiency by aspartic endopeptidase (HPLC); type: biochemical; conditions: 1 mg/ml compound, enzyme 1 μmol/L, pH 6.0, 37° C., 2 hours; ratio of released product to original compound
T1 sequence (Q99538 18-323): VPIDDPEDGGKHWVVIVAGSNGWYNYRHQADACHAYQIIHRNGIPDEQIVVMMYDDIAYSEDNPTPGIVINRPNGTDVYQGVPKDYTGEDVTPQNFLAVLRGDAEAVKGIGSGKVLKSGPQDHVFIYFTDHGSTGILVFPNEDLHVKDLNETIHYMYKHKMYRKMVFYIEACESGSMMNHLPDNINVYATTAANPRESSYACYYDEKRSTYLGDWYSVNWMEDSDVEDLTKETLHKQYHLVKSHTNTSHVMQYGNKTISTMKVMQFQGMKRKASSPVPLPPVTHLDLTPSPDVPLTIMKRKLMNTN
Experimental: The sample compound and a portion of the control compound (herein, all of the control compounds can be synthesized by a method similar to that described in Examples 1-3) were uniformly diluted 10-fold to 1 mg/ml with the enzyme-digesting solution. In this experiment, 1 mg/ml of the sample compound was added to the aspartic endopeptidase (1 μmol/L, pH 6.0) at 37° C. for 2 hours. After the reaction, the enzyme digest was able to release the enzyme-digested product. The decrease in the compound and the increase in the product were examined by HPLC to compare the enzyme activation efficiency (the ratio of the product released by the enzyme cleavage to the original compound).

[1] = tested on: Tumor-associated macrophages (M2 type); assay: MTT toxicity on tumor-associated macrophages (M2 type); type: cell-based; conditions: 48 hours, pH 6.5, MTT, FIG. 7
Experimental: Tumor-associated macrophages (M2 type) induced by mononuclear bone marrow cells were collected by M-CSF (10 ng/ml), the cell suspension concentration was adjusted, 140 ul per well was added, and the cells were adjusted to a density of ˜3000 […]. 5% CO2, incubate at 37° C. overnight, until the cell monolayer is covered with the bottom of the well (96-well flat bottom plate), and then add a continuous concentration gradient to give different concentrations of the drug, the drug is set to 9 concentration gradients, 10 μl per well, set Three replicate wells; 5% CO2, incubated at 37° C., pH 6.5 for 48 hours, observed under an inverted microscope; 20 μl of MTT solution (5 mg/ml, i.e., 0.5% MTT) was added to each well and culture was continued for 4 h. The culture was terminated, and the culture solution in the well was carefully aspirated; 100 ul of dimethyl sulfoxide was added to each well, and shaken on a shaker at a low speed for 10 min to dissolve the crystals sufficiently. The absorbance of each well was measured at an enzyme-linked immunosorbent detector at OD490 nm. At the same time, zero adjustment holes (medium, MTT, dimethyl sulfoxide), control group (cell, same concentration of drug dissolution medium, medium, MTT, dimethyl sulfoxide) were set. The toxicity of the compound to tumor-associated macrophages (M2 type) was analyzed after the test. The inhibition of tumor-associated macrophages (M2 type) by different drugs was compared. […] Compound a, sorafenib, is also toxic because it is not a targeted activating drug.

[2] = Solid stability, 60° C. for 10 days in the dark (HPLC); type: physicochemical; conditions: solid, 60° C., 10 days, dark; for Stability(%): content versus time 0
Experimental: The test was carried out by leaving it at 60° C. for 10 days in the dark. The ratio of the change in the content of the compound to the compound at time 0 was measured by HPLC, and the stability value (%) was calculated.

CT26 tumor cells = assay: CT26 immunotherapy model (Example 15); type: in vivo, mice; conditions: for Cure rate % / Number of cures: 10 in each group; for Tumor inhibition rate % (Day 42): IV ⅓ MTD once a week, 6 weeks; for Recurrence rate % (Week 7): cured mice re-inoculated with CT26 cells after 50 days
[3] = Drug content in tumor tissue homogenate (HPLC); type: in vivo; conditions: 10 micromoles per kilogram intravenous, tumor-bearing mice, FIG. 4
Experimental: Intravenous injection of 10 micromoles per kilogram of the drug into tumor-bearing mice, surgically obtained tumor tissue homogenate, and the drug content was determined by the HPLC method.

BALB/C mouse = assay: MTD (maximum tolerated dose) acute toxicity in mice; type: in vivo; conditions: intravenous; for Number of deaths: 10 mice per group; for Death dose: observed 17 days
[4] = as above; type: in vivo, mouse; conditions: female, mouse, in vivo; BALB/C mice, intravenous, observed 17 days
[5] = Tumor tissue distribution by autofluorescence after intravenous injection; type: in vivo; conditions: 10 μmol/kg intravenously, after 12 hours, FIG. 2
Experimental: Since DOX, Succinyl-AANL-DOX and S3 have autofluorescence, they can be detected by fluorescence microscopy in tumor tissues. 10 μmol/kg of DOX, Succinyl-AANL-DOX and S3 were injected intravenously. After 12 hours, the drug distribution image of the tumor tissue sections and the fluorescence intensity of the tumor tissue homogenate were measured. Nuclear staining was performed using DAPI.

[6] = Stability of sorafenib derivatives in buffer systems; type: physicochemical; conditions: weak acid, weak base and neutral buffer
Source text: In order to solve this dilemma, the present invention performs allosteric synthesis and screening of the ortho-carboxamide group of the pyridine ring in the sorafenib molecule, and obtains a special compound which satisfies both the structure-activity relationship and the release effect. That is, compound a and compound b).

Row | SMILES | Tumor inhibition rate/% (week 7) (D121 lung cancer cells) | CD8: CD45 (%) (D121 lung cancer cells) | toxicity to Heg2 cells (Heg2 cells) | Activation efficiencies (%) (aspartic endopeptidase) | toxicity to / activation by tumor-associated macrophages (M2 type) [1] | Stability verdict (stable / unstable) [2] | Stability(%) [2] | Cure rate % (CT26 tumor cells) | Number of cures (CT26 tumor cells) | Tumor inhibition rate % (Day 42) (CT26 tumor cells) | Recurrence rate % (Week 7) (CT26 tumor cells) | drug distribution in the tumor [3] | Number of deaths (BALB/C mouse) | Death dose (BALB/C mouse) | MTD at 17 days [4] | tumor tissue distribution and penetration [5] | inhibition of cancer cells versus positive controls (Heg2 cells) | stability in buffer systems [6]
1 | CC(NC(=O)C(C)NC(=O)[C@H](O)[C@H](O)[C@@H](O[C@@H]1O[C@H](CO)[C@H](O)[C@H](O)[C@H]1O)[C@H](O)CO)C(=O)NC(CC(N)=O)C(=O)Nc1ccc(COC(=O)N(C)CCNC(=O)c2cc(Oc3ccc(NC(=O)Nc4ccc(Cl)c(C(F)(F)F)c4)cc3)ccn2)cc1 (some centres unmarked) [Compound S1, Lacto-AAN-PABC-compound a] | 53.4% | 11.0% | non-toxic to normal cells | 86.7% | more susceptible to phagocytosis and activation by macrophages than other methods of linker | stable | 96.7% | 40% | 4 | 94.7% | 0% | multiplied in the distribution of sorafenib in the tumor | 1 | 350 mg/kg | 300 mg/kg | – | – | –
2 | COc1cccc2c1C(=O)c1c(O)c3c(c(O)c1C2=O)C[C@](O)(C(=O)CO)CC3OC1C[C@H](NC(=O)OCc2ccc(NC(=O)C(CC(N)=O)NC(=O)C(C)NC(=O)C(C)NC(=O)[C@H](O)[C@H](O)[C@@H](O[C@@H]3O[C@H](CO)[C@H](O)[C@H](O)[C@H]3O)[C@H](O)CO)cc2)[C@H](O)[C@H](C)O1 (some centres unmarked) [Compound S3, Lacto-AAN-PABC-Adriamycin] | 62.5% | 14.6% | – | 82.6% | – | stable | 99.8% | 80% | 8 | 82.5% | 0% | increasing the distribution in the tumor compared to C11 | 1 | 110 mg/kg | 100 mg/kg | more tumor tissue distribution and penetration after intravenous injection than Succinyl-AANL-DOX | – | –
3 | CNCCNC(=O)c1cc(Oc2ccc(NC(=O)Nc3ccc(Cl)c(C(F)(F)F)c3)cc2)ccn1 [compound a] | – | – | more toxic than sorafenib | – | also toxic | – | – | – | – | – | – | – | – | – | – | – | inhibited cancer cells better than the positive control drugs sorafenib and regorafenib | stable in weak acid, weak base and neutral buffer system, did not degrade
4 | CNCCNC(=O)c1cc(Oc2ccc(NC(=O)Nc3ccc(Cl)c(C(F)(F)F)c3)c(F)c2)ccn1 [compound b] | – | – | – | – | – | – | – | – | – | – | – | – | – | – | – | – | inhibited cancer cells better than the positive control drugs sorafenib and regorafenib | stable in weak acid, weak base and neutral buffer system, did not degrade
